According to paper PMC4052943 (BioMed Research International, 2014):
Like-named read-outs stand apart in the source and are kept apart here.

Key:
[1] = test system: A549 cells; test: MTT cell proliferation assay; assay type: cell-based; details: Homo sapiens; A549; 50 μg/mL; 48 h; read-out: inhibition of cells (antiproliferative activity, MTT)
Experimental: (§1) Inhibition of cell proliferation by PC and EA was measured with the MTT assay. Human lung cancer A549 and H1299 cells were obtained from ATCC (Manassas, VA, USA) and maintained in DMEM supplemented with 10% fetal calf serum (FCS), 1% penicillin/streptomycin. Cells were plated in 96-well culture plates (5 × 10^3 cells/well). After 24 h incubation, cells were treated with vehicle alone (0.1% DMSO) and PC and EA (12.5–200 μg/mL) extracts for 48 h. Then, the culture medium was replaced by 100 μL of fresh medium containing 0.5 mg/mL MTT, and the plates were incubated for 2 h at 37°C. The medium was then removed and was replaced by 200 μL of DMSO to solubilize the converted purple dye. The absorbance was measured with a spectrophotometer microplate reader at a wavelength of 570 nm.

[2] = test system: H1299 cells; test: MTT cell proliferation assay; assay type: cell-based; details: Homo sapiens, NCI-H1299; H1299; 50 μg/mL; 48 h; read-out: inhibition of cells (antiproliferative activity, MTT)
Experimental: as §1

[3] = test system: Salmonella typhimurium TA97a; test: Ames antimutagenicity assay (preincubation); details: for inhibition at 50 µM / inhibition at 100 µM / inhibition at 250 µM / inhibition at 500 µM: Salmonella enterica, TYPHIMURIUM; for Number of His+ revertants colonies/plate: TA 97a;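 as to all read-outs here: compound and mutagen preincubated together 30 min at 37 °C before adding bacteria, then plated on minimal glucose agar for 48 h and His+ revertant colonies counted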
Experimental: (§2) In the preincubation experiment, test compounds and mutagen, each having a volume of 0.1 mL of varying concentrations, were preincubated at 37°C for 30 min and then 0.1 mL of 1 × 10^7 CFU/mL density of the bacterial culture was added, followed by the addition of 2.5 mL of top agar at 45°C (containing 0.5% NaCl and 0.6% agar) supplemented with 0.5 mM histidine-biotin. […] The combined solutions were vortexed and poured onto minimal glucose plates (40% glucose solution and Vogel Bonner medium). The plates were incubated at 37°C for 48 h and the numbers of histidine-independent revertants colonies were scored.
(§3) Survival of the bacteria was routinely monitored for each experiment. Parallel controls were run with compounds alone at all concentrations to test the possible toxicity. The concentrations of the test samples for investigating the antimutagenicity were 50, 100, 200, and 500 μM. […] All the test samples and mutagens were dissolved in DMSO (final conc., 0.01%). […] Plates were set up in triplicate for each concentration and the entire experiment was repeated three times. Inhibition of mutagenicity was expressed as percentage decrease of reverse mutation and calculated as (1) Percent inhibition=[(a−b)/(a−c)]×100, where a = number of histidine revertants induced by mutagen, b = number of histidine revertants induced by mutagen in the presence of test compound, and c = number of revertants induced in negative control.

[4] = test system: Salmonella typhimurium TA98; test: Ames antimutagenicity assay (preincubation); details: for inhibition at 50 µM / inhibition at 100 µM / inhibition at 250 µM / inhibition at 500 µM: Salmonella enterica, TYPHIMURIUM;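 as to all read-outs here: test compound and mutagen preincubated 30 min at 37°C before adding bacteria, then His+ revertant colonies counted after 48 h plating, inhibition relative to mutagen-only versus negative-control revertants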
Experimental: as §2, §3

[5] = test system: Salmonella typhimurium TA102; test: Ames antimutagenicity assay (preincubation); details: for inhibition at 50 µM / inhibition at 100 µM / inhibition at 250 µM / inhibition at 500 µM: Salmonella enterica, TYPHIMURIUM;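 as to all read-outs here: compound and mutagen preincubated 30 min at 37 °C before adding bacteria, His+ revertant colonies counted after 48 h at 37 °C, inhibition relative to mutagen-alone minus negative-control revertants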
Experimental: as §2, §3

## O=c1oc2c(O)c(O)cc3c(=O)oc4c(O)c(O)cc1c4c23 [Ellagic acid, ellagic acid]
[1]
  inhibition at 50 µg/mL: 39%
[2]
  inhibition at 50 µg/mL: 34%
[3]; read-out: % inhibition of mutagenicity, TA 97a, 50 μM + 2AF, S9
  inhibition at 50 µM: 12.5%
[3]; read-out: % inhibition of mutagenicity, TA 97a, 50 μM + BP, S9
  inhibition at 50 µM: 14.1%
[3]; read-out: % inhibition of mutagenicity, TA 97a, 50 μM + MMS, no S9
  inhibition at 50 µM: 9%
[3]; read-out: % inhibition of mutagenicity, TA 97a, 50 μM + NaN3, no S9
  inhibition at 50 µM: 21.1%
[3]; read-out: % inhibition of mutagenicity, TA 97a, 100 μM + 2AF, S9
  inhibition at 100 µM: 22.6%
[3]; read-out: % inhibition of mutagenicity, TA 97a, 100 μM + BP, S9
  inhibition at 100 µM: 36%
[3]; read-out: % inhibition of mutagenicity, TA 97a, 100 μM + MMS, no S9
  inhibition at 100 µM: 25%
[3]; read-out: % inhibition of mutagenicity, TA 97a, 100 μM + NaN3, no S9
  inhibition at 100 µM: 39.4%
[3]; read-out: % inhibition of mutagenicity, TA 97a, 250 μM + BP, S9
  inhibition at 250 µM: 71.8%
[3]; read-out: % inhibition of mutagenicity, TA 97a, 250 μM + MMS, no S9
  inhibition at 250 µM: 42.2%
[3]; read-out: % inhibition of mutagenicity, TA 97a, 250 μM + NaN3, no S9
  inhibition at 250 µM: 53.6%
[3]; read-out: % inhibition of mutagenicity, TA 97a, 500 μM + 2AF, S9
  inhibition at 500 µM: 81.7%
[3]; read-out: % inhibition of mutagenicity, TA 97a, 500 μM + BP, S9
  inhibition at 500 µM: 83.5%
[3]; read-out: % inhibition of mutagenicity, TA 97a, 500 μM + MMS, no S9
  inhibition at 500 µM: 66.5%
[3]; read-out: % inhibition of mutagenicity, TA 97a, 500 μM + NaN3, no S9
  inhibition at 500 µM: 72.1%
[3]; 50 μM + 2AF, S9
  Number of His+ revertants colonies/plate: 312.3 ± 20.5 colonies/plate
[3]; 50 μM + BP, S9
  Number of His+ revertants colonies/plate: 652.7 ± 35.3 colonies/plate
[3]; 50 μM + MMS, no S9
  Number of His+ revertants colonies/plate: 426.3 ± 11.6 colonies/plate
[3]; 50 μM + NaN3, no S9
  Number of His+ revertants colonies/plate: 242.0 ± 11.8 colonies/plate
[3]; 100 μM + 2AF, S9
  Number of His+ revertants colonies/plate: 296.7 ± 13.4 colonies/plate
[3]; 100 μM + BP, S9
  Number of His+ revertants colonies/plate: 529.0 ± 28.6 colonies/plate
[3]; 100 μM + MMS, no S9
  Number of His+ revertants colonies/plate: 378.0 ± 10.8 colonies/plate
[3]; 100 μM + NaN3, no S9
  Number of His+ revertants colonies/plate: 219.3 ± 7.1 colonies/plate
[3]; 250 μM + BP, S9
  Number of His+ revertants colonies/plate: 333.3 ± 22.2 colonies/plate
[3]; 250 μM + MMS, no S9
  Number of His+ revertants colonies/plate: 321.3 ± 10.8 colonies/plate
[3]; 250 μM + NaN3, no S9
  Number of His+ revertants colonies/plate: 196.7 ± 8.2 colonies/plate
[3]; 500 μM + 2AF, S9
  Number of His+ revertants colonies/plate: 212.0 ± 10.4 colonies/plate
[3]; 500 μM + BP, S9
  Number of His+ revertants colonies/plate: 275.3 ± 17.5 colonies/plate
[3]; 500 μM + MMS, no S9
  Number of His+ revertants colonies/plate: 239.7 ± 10.8 colonies/plate
[3]; 500 μM + NaN3, no S9
  Number of His+ revertants colonies/plate: 168.0 ± 7.0 colonies/plate
[4]; read-out: % inhibition of mutagenicity, TA 98, 50 μM + 2AF, S9
  inhibition at 50 µM: 19.4%
[4]; read-out: % inhibition of mutagenicity, TA 98, 50 μM + BP, S9
  inhibition at 50 µM: 22.2%
[4]; read-out: % inhibition of mutagenicity, TA 98, 50 μM + MMS, no S9
  inhibition at 50 µM: 22.2%
[4]; read-out: % inhibition of mutagenicity, TA 98, 100 μM + 2AF, S9
  inhibition at 100 µM: 39.6%
[4]; read-out: % inhibition of mutagenicity, TA 98, 100 μM + BP, S9
  inhibition at 100 µM: 48.2%
[4]; read-out: % inhibition of mutagenicity, TA 98, 100 μM + MMS, no S9
  inhibition at 100 µM: 34%
[4]; read-out: % inhibition of mutagenicity, TA 98, 100 μM + NaN3, no S9
  inhibition at 100 µM: 27.9%
[4]; read-out: % inhibition of mutagenicity, TA 98, 250 μM + BP, S9
  inhibition at 250 µM: 62.3%
[4]; read-out: % inhibition of mutagenicity, TA 98, 250 μM + MMS, no S9
  inhibition at 250 µM: 50%
[4]; read-out: % inhibition of mutagenicity, TA 98, 250 μM + NaN3, no S9
  inhibition at 250 µM: 50%
[4]; read-out: % inhibition of mutagenicity, TA 98, 500 μM + 2AF, S9
  inhibition at 500 µM: 80%
[4]; read-out: % inhibition of mutagenicity, TA 98, 500 μM + BP, S9
  inhibition at 500 µM: 78.6%
[4]; read-out: % inhibition of mutagenicity, TA 98, 500 μM + MMS, no S9
  inhibition at 500 µM: 69%
[4]; read-out: % inhibition of mutagenicity, TA 98, 500 μM + NaN3, no S9
  inhibition at 500 µM: 64.2%
[4]; TA 98, 50 μM + 2AF, S9
  Number of His+ revertants colonies/plate: 214.3 ± 13.9 colonies/plate
[4]; TA 98, 50 μM + BP, S9
  Number of His+ revertants colonies/plate: 140.0 ± 12.2 colonies/plate
[4]; TA 98, 50 μM + MMS, no S9
  Number of His+ revertants colonies/plate: 53.0 ± 1.2 colonies/plate
[4]; TA 98, 100 μM + 2AF, S9
  Number of His+ revertants colonies/plate: 171.0 ± 9.5 colonies/plate
[4]; TA 98, 100 μM + BP, S9
  Number of His+ revertants colonies/plate: 107.3 ± 7.9 colonies/plate
[4]; TA 98, 100 μM + MMS, no S9
  Number of His+ revertants colonies/plate: 48.3 ± 2.0 colonies/plate
[4]; TA 98, 100 μM + NaN3, no S9
  Number of His+ revertants colonies/plate: 48.3 ± 2.7 colonies/plate
[4]; TA 98, 250 μM + BP, S9
  Number of His+ revertants colonies/plate: 86.3 ± 5.8 colonies/plate
[4]; TA 98, 250 μM + MMS, no S9
  Number of His+ revertants colonies/plate: 44.0 ± 2.1 colonies/plate
[4]; TA 98, 250 μM + NaN3, no S9
  Number of His+ revertants colonies/plate: 43.3 ± 2.6 colonies/plate
[4]; TA 98, 500 μM + 2AF, S9
  Number of His+ revertants colonies/plate: 76.3 ± 6.1 colonies/plate
[4]; TA 98, 500 μM + BP, S9
  Number of His+ revertants colonies/plate: 60.7 ± 10.5 colonies/plate
[4]; TA 98, 500 μM + MMS, no S9
  Number of His+ revertants colonies/plate: 37.3 ± 2.6 colonies/plate
[4]; TA 98, 500 μM + NaN3, no S9
  Number of His+ revertants colonies/plate: 38.0 ± 1.7 colonies/plate
[5]; read-out: % inhibition of mutagenicity, TA 102, 50 μM + 2AF, S9
  inhibition at 50 µM: 17.5%
[5]; read-out: % inhibition of mutagenicity, TA 102, 50 μM + BP, S9
  inhibition at 50 µM: 11.5%
[5]; read-out: % inhibition of mutagenicity, TA 102, 50 μM + MMS, no S9
  inhibition at 50 µM: 18.5%
[5]; read-out: % inhibition of mutagenicity, TA 102, 50 μM + NaN3, no S9
  inhibition at 50 µM: 21.9%
[5]; read-out: % inhibition of mutagenicity, TA 102, 100 μM + 2AF, S9
  inhibition at 100 µM: 45.9%
[5]; read-out: % inhibition of mutagenicity, TA 102, 100 μM + BP, S9
  inhibition at 100 µM: 23.6%
[5]; read-out: % inhibition of mutagenicity, TA 102, 100 μM + MMS, no S9
  inhibition at 100 µM: 30.3%
[5]; read-out: % inhibition of mutagenicity, TA 102, 100 μM + NaN3, no S9
  inhibition at 100 µM: 40.3%
[5]; read-out: % inhibition of mutagenicity, TA 102, 250 μM + BP, S9
  inhibition at 250 µM: 46.6%
[5]; read-out: % inhibition of mutagenicity, TA 102, 250 μM + MMS, no S9
  inhibition at 250 µM: 44.3%
[5]; read-out: % inhibition of mutagenicity, TA 102, 250 μM + NaN3, no S9
  inhibition at 250 µM: 50.7%
[5]; read-out: % inhibition of mutagenicity, TA 102, 500 μM + 2AF, S9
  inhibition at 500 µM: 89%
[5]; read-out: % inhibition of mutagenicity, TA 102, 500 μM + BP, S9
  inhibition at 500 µM: 83.7%
[5]; read-out: % inhibition of mutagenicity, TA 102, 500 μM + MMS, no S9
  inhibition at 500 µM: 72.4%
[5]; read-out: % inhibition of mutagenicity, TA 102, 500 μM + NaN3, no S9
  inhibition at 500 µM: 62.3%
[5]; TA 102, 50 μM + 2AF, S9
  Number of His+ revertants colonies/plate: 1276.0 ± 38.0 colonies/plate
[5]; TA 102, 50 μM + BP, S9
  Number of His+ revertants colonies/plate: 653.0 ± 34.7 colonies/plate
[5]; TA 102, 50 μM + MMS, no S9
  Number of His+ revertants colonies/plate: 1071.0 ± 16.7 colonies/plate
[5]; TA 102, 50 μM + NaN3, no S9
  Number of His+ revertants colonies/plate: 345.3 ± 26.7 colonies/plate
[5]; TA 102, 100 μM + 2AF, S9
  Number of His+ revertants colonies/plate: 924.0 ± 25.3 colonies/plate
[5]; TA 102, 100 μM + BP, S9
  Number of His+ revertants colonies/plate: 595.0 ± 24.1 colonies/plate
[5]; TA 102, 100 μM + MMS, no S9
  Number of His+ revertants colonies/plate: 956.0 ± 19.6 colonies/plate
[5]; TA 102, 100 μM + NaN3, no S9
  Number of His+ revertants colonies/plate: 328.0 ± 28.2 colonies/plate
[5]; TA 102, 250 μM + BP, S9
  Number of His+ revertants colonies/plate: 514.0 ± 21.4 colonies/plate
[5]; TA 102, 250 μM + MMS, no S9
  Number of His+ revertants colonies/plate: 810.0 ± 19.1 colonies/plate
[5]; TA 102, 250 μM + NaN3, no S9
  Number of His+ revertants colonies/plate: 308.0 ± 23.6 colonies/plate
[5]; TA 102, 500 μM + 2AF, S9
  Number of His+ revertants colonies/plate: 431.0 ± 13.6 colonies/plate
[5]; TA 102, 500 μM + BP, S9
  Number of His+ revertants colonies/plate: 366.0 ± 25.0 colonies/plate
[5]; TA 102, 500 μM + MMS, no S9
  Number of His+ revertants colonies/plate: 506.0 ± 13.5 colonies/plate
[5]; TA 102, 500 μM + NaN3, no S9
  Number of His+ revertants colonies/plate: 288.3 ± 19.2 colonies/plate
